From publication PMC11129975, “A first-in-human phase I study of TAS-117, an allosteric AKT inhibitor, in patients with advanced solid tumors” (Cancer Chemotherapy and Pharmacology, 2024)
Marks after values point to notes of the source that are not given here.

Columns and labels:
NCI-N87 = conditions: oral dosing; NCI-N87 (HER2 amplification); cited from earlier work
[1] = Plasma and urine pharmacokinetics of TAS-117 in patients; assay type: in vivo, human
Protocol: Blood samples for pharmacokinetic analysis were collected immediately prior to dosing (0 h) and at 0.5, 1, 2, 3, 4, 6, 8, 12, and 24 h post-dose on Day 1 and Day 21 of Cycle 1 for patients in the DEP (QD dosing). For patients who received intermittent dosing regimens, blood was collected immediately prior to dosing (0 h) and at 1, 2, 3, 4, 6, 8, 10, and 24 h post-dose on Cycle 1 Day 1; immediately prior to dosing (0 h) on Cycle 1 Days 3, 4, and 8; and immediately prior to dosing (0 h) and at 1, 2, 3, 4, 6, 8, 10, 24, 48, and 96 h post-dose on Cycle 1 Day 18. Urine samples for pharmacokinetic analysis were collected immediately prior to dosing (single sample collection) and from 0 to 6 h and from 6 to 12 h and 12 to 24 h post-dose on Day 1 of Cycle 1 for both QD and intermittent dosing. Blood samples for pharmacodynamic analysis were collected at pre-dose and 4, 8, and 24 h post-dose on Cycle 1 Day 1, and at pre-dose and 4 h post-dose on Cycle 1 Day 21 (QD dosing) or Cycle 1 Day 18 (intermittent dosing).
Descriptive data were used to summarize safety data and antitumor activity. Pharmacokinetic parameters were derived using non-compartmental analysis and summarized descriptively by dose level, study day, and study phase. […] The accumulation of TAS-117 was assessed by comparing pharmacokinetic parameters on Day 1 and Day 21 (QD) or Day 18 (intermittent dosing). Pharmacodynamic data were presented using summary statistics of the ratio of pPRAS40/total PRAS40 to baseline values (pre-dose) on Day 1 and Day 18 or 21, by dose level and treatment regimen. Pharmacogenomics data were summarized, and the relevance between biomarkers and efficacy was analyzed using Fisher’s Exact test.
P-values < 0.05 were considered significant. Missing data were not imputed, and analyses were performed using all available data. Plasma pharmacokinetic parameters were evaluated using Phoenix® WinNonlin® software (Pharsight Corporation as part of Certara, Princeton, NJ, US, Version 8.1 or 8.3). Statistical analyses were performed using SAS version 9.4 (SAS Institute; Cary, NC, US).

[2] = DEP, Cycle 1 Day 1, 8 mg QD, n = 1
[3] = DEP, Cycle 1 Day 1, 16 mg QD, n = 6
[4] = DEP, Cycle 1 Day 1, 24 mg QD, n = 3
[5] = DEP, Cycle 1 Day 1, 24 mg QD, n = 2
[6] = DEP, Cycle 1 Day 21, 8 mg QD, n = 1
[7] = DEP, Cycle 1 Day 21, 16 mg QD, n = 3
[8] = DEP, Cycle 1 Day 21, 16 mg QD, n = 2
[9] = DEP, Day 21 vs Day 1, 16 mg QD, n = 3
[10] = RMP, Cycle 1 Day 1, 24 mg intermittent dosing (4 days on/3 days off), n = 6
[11] = RMP, Cycle 1 Day 1, 24 mg intermittent dosing (4 days on/3 days off), n = 5
[12] = RMP, Cycle 1 Day 1, 32 mg intermittent dosing (4 days on/3 days off), n = 4
[13] = RMP, Cycle 1 Day 18, 24 mg intermittent dosing (4 days on/3 days off), n = 5
[14] = RMP, Cycle 1 Day 18, 32 mg intermittent dosing (4 days on/3 days off), n = 1
[15] = RMP, Day 18 vs Day 1, 24 mg intermittent dosing, n = 5
[16] = RMP, Day 18 vs Day 1, 32 mg intermittent dosing, n = 1

C[C@]1(O)C[C@@](N)(c2ccc(-c3nc4n(c3-c3ccccc3)COc3ccncc3-4)cc2)C1 [TAS-117]
Antitumor activity (NCI-N87): demonstrated single-agent antitumor activity
Dose proportionality of Cmax, AUClast and AUC0–24 ([1]; 8 to 32 mg dose range): dose proportional
AUC0–24 [1, 2]: 164 ng·h/mL
AUClast [1, 2]: 165 ng·h/mL
CLr [1, 2]: 4.11 L/h
Cmax [1, 2]: 8.82 ng/mL
t1/2 [1, 2]: 21.96 h
tmax [1, 2]: 1.93 h
Fe ([1]; DEP, Cycle 1 Day 1, 8 mg QD, n = 1, urinary excretion rate as percentage of dose): 8.45%
AUC0–24, Mean (SD) [1, 3]: 315 (73) ng·hr/mL
AUC0–24, gMean [1, 3]: 308 ng·h/mL
AUClast, Mean (SD) [1, 3]: 316 (73) ng·hr/mL
AUClast, gMean [1, 3]: 308 ng·h/mL
CLr, Mean (SD) [1, 3]: 5.20 (2.19) L/h
CLr, gMean [1, 3]: 4.78 L/h
Cmax, Mean (SD) [1, 3]: 25.1 (7.66) ng/mL
Cmax, gMean [1, 3]: 24.1 ng/mL
Fe, Mean (SD) [1, 3]: 10.43 (4.94) %
Fe, gMean [1, 3]: 9.20%
t1/2, Mean (SD) [1, 3]: 26.98 (6.06) h
t1/2, gMean [1, 3]: 26.40 h
tmax, median (min, max) [1, 3]: 2.98 (1.88, 3.89)^c h
AUC0–24, Mean (SD) [1, 4]: 438 (194) ng·hr/mL
AUC0–24, gMean [1, 4]: 407 ng·h/mL
AUClast, Mean (SD) [1, 4]: 438 (193) ng·hr/mL
AUClast, gMean [1, 4]: 408 ng·h/mL
CLr, Mean (SD) [1, 4]: 6.39 (2.72) L/h
CLr, gMean [1, 4]: 6.04 L/h
Cmax, Mean (SD) [1, 4]: 31.0 (15.7) ng/mL
Cmax, gMean [1, 4]: 28.6 ng/mL
Fe, Mean (SD) [1, 4]: 10.48 (2.73) %
Fe, gMean [1, 4]: 10.25%
tmax, median (min, max) [1, 4]: 3.98 (3.92, 6.00)^c h
t1/2, Mean (SD) [1, 5]: 23.06 (NC)^d h
t1/2, gMean [1, 5]: 22.61^d h
AUClast [1, 6]: 604 ng·h/mL
Cmax [1, 6]: 33.1 ng/mL
tmax [1, 6]: 7.85 h
AUC0–24, Mean (SD) [1, 7]: 865 (216) ng·hr/mL
AUC0–24, gMean [1, 7]: 846 ng·h/mL
AUClast, Mean (SD) [1, 7]: 864 (220) ng·hr/mL
AUClast, gMean [1, 7]: 844 ng·h/mL
Cmax, Mean (SD) [1, 7]: 61.4 (22.2) ng/mL
Cmax, gMean [1, 7]: 58.3 ng/mL
tmax, median (min, max) [1, 7]: 1.93 (1.87, 2.02)^c h
t1/2, Mean (SD) [1, 8]: 41.65 (NC)^d h
t1/2, gMean [1, 8]: 41.23^d h
Observed accumulation ratio of Cmax ([1]; DEP, Day 21 vs Day 1, 8 mg QD, n = 1): 3.75
Observed accumulation ratio of AUC0–24, Mean (SD) [1, 9]: 2.84 (0.04)
Observed accumulation ratio of AUC0–24, gMean [1, 9]: 2.83
Observed accumulation ratio of Cmax, Mean (SD) [1, 9]: 2.71 (0.48)
Observed accumulation ratio of Cmax, gMean [1, 9]: 2.69
AUC0–24, Mean (SD) [1, 10]: 543 (108) ng·hr/mL
AUC0–24, gMean [1, 10]: 534 ng·h/mL
AUClast, Mean (SD) [1, 10]: 542 (107) ng·hr/mL
AUClast, gMean [1, 10]: 533 ng·h/mL
CLr, Mean (SD) [1, 10]: 4.55 (1.43) L/h
CLr, gMean [1, 10]: 4.34 L/h
Cmax, Mean (SD) [1, 10]: 42.1 (11.1) ng/mL
Cmax, gMean [1, 10]: 40.9 ng/mL
Fe, Mean (SD) [1, 10]: 10.02 (2.85) %
Fe, gMean [1, 10]: 9.65%
tmax, median (min, max) [1, 10]: 3.28 (0.95, 4.15)^c h
t1/2, Mean (SD) [1, 11]: 31.92 (10.77)^e h
t1/2, gMean [1, 11]: 30.44^e h
AUC0–24, Mean (SD) [1, 12]: 770 (155) ng·hr/mL
AUC0–24, gMean [1, 12]: 758 ng·h/mL
AUClast, Mean (SD) [1, 12]: 774 (162) ng·hr/mL
AUClast, gMean [1, 12]: 761 ng·h/mL
CLr, Mean (SD) [1, 12]: 4.12 (1.82) L/h
CLr, gMean [1, 12]: 3.80 L/h
Cmax, Mean (SD) [1, 12]: 60 (18.4) ng/mL
Cmax, gMean [1, 12]: 58.0 ng/mL
Fe, Mean (SD) [1, 12]: 9.32 (2.71) %
Fe, gMean [1, 12]: 9.01%
t1/2, Mean (SD) [1, 12]: 24.02 (3.80) h
t1/2, gMean [1, 12]: 23.81 h
tmax, median (min, max) [1, 12]: 2.43 (1.95, 4.03)^c h
AUC0–24, Mean (SD) [1, 13]: 1498 (500) ng·hr/mL
AUC0–24, gMean [1, 13]: 1433 ng·h/mL
AUClast, Mean (SD) [1, 13]: 3542 (1023) ng·hr/mL
AUClast, gMean [1, 13]: 3420 ng·h/mL
Cmax, Mean (SD) [1, 13]: 89.9 (37.4) ng/mL
Cmax, gMean [1, 13]: 83.8 ng/mL
t1/2, Mean (SD) [1, 13]: 49.31 (7.73) h
t1/2, gMean [1, 13]: 48.83 h
tmax, median (min, max) [1, 13]: 2.00 (0.98, 5.92)^c h
AUC0–24 [1, 14]: 2105 ng·h/mL
AUClast [1, 14]: 5558 ng·h/mL
Cmax [1, 14]: 160 ng/mL
t1/2 [1, 14]: 49.63 h
tmax [1, 14]: 1.00 h
Observed accumulation ratio of AUC0–24, Mean (SD) [1, 15]: 2.70 (0.37)
Observed accumulation ratio of AUC0–24, gMean [1, 15]: 2.68
Observed accumulation ratio of Cmax, Mean (SD) [1, 15]: 2.06 (0.73)
Observed accumulation ratio of Cmax, gMean [1, 15]: 1.95
Observed accumulation ratio of AUC0–24 [1, 16]: 2.69
Observed accumulation ratio of Cmax [1, 16]: 2.50
Steady state reached by ([1]; indicated by t1/2 data): ≤ 8 days
